For data set [1], the system named is aspartate aminotransferase. The following applies: off-target enzyme, prior art; cited from earlier work.
A further data set deals with GABA-AT. The following applies: cited from earlier work.
In the next data set the target is hERG channel (Homo sapiens (Human), UniProt Q12809). The data set can be described thus: Inhibition of the hERG channel, automated whole-cell patch clamp. The following applies: hERG CHO-K1 cell line; 0.1 μM, 1 μM, 10 μM; 5 min at room temperature. It counts as cell-based. Here is the method:
Inhibition of the hERG Channel. The experiments were performed by Eurofins Panlabs (Redmond, Wash. 98052, USA). hERG CHO-K1 cell line was used. The test concentrations were 0.1 μM, 1 μM, and 10 μM. The incubation time was 5 min at room temperature, cumulatively. The detection method used an automated whole-cell patch clamp. The experiments were duplicated, and the % inhibition of the tail current was averaged (FIG. 9).

The subject of a further data set is CYP3A. The data set can be described thus: Inhibition of microsomal cytochromes P450: CYP3A. The following applies: HLM, midazolam and testosterone substrates, 10 μM, 10 min at 37° C. The format is in vitro ADME, human. On the procedure: (§1) Inhibition of Microsomal Cytochromes P450. The experiments were performed by Eurofins Panlabs (Redmond, Wash. 98052, USA). CYP1A inhibition (HLM, phenacetin substrate), CYP2B6 inhibition (HLM, bupropion substrate), CYP2C8 inhibition (HLM, paclitaxel substrate), CYP2C9 inhibition (HLM, diclofenac substrate), CYP2C19 inhibition (HLM, omeprazole substrate), CYP2D6 inhibition (HLM, dextromethorphan substrate), and CYP3A inhibition (HLM, midazolam and testosterone substrates) were tested. The test concentration was 10 μM. The incubation time was 10 min at 37° C. The detection method was by HPLC-MS/MS. The experiments were duplicated, and the % inhibition of the control values was averaged (FIG. 10).

For another data set, the target named is CYP2B6 (Homo sapiens (Human), UniProt P20813). Put plainly: Inhibition of microsomal cytochromes P450: CYP2B6. Conditions: HLM, bupropion substrate, 10 μM, 10 min at 37° C. The format is in vitro ADME. On the procedure: as §1
The next data set addresses CYP2D6 (Homo sapiens (Human), UniProt P10635). The data set can be described thus: Inhibition of microsomal cytochromes P450: CYP2D6. The following applies: HLM, dextromethorphan substrate, 10 μM, 10 min at 37° C. The format is in vitro ADME. Here is the method:
as §1

A further data set deals with CYP1A. Put plainly: Inhibition of microsomal cytochromes P450: CYP1A. The format is in vitro ADME, human. The following applies: HLM, phenacetin substrate, 10 μM, 10 min at 37° C. On the procedure:
as §1

The next data set addresses CYP2C9 (Homo sapiens (Human), UniProt P11712). The data set can be described thus: Inhibition of microsomal cytochromes P450: CYP2C9. It counts as in vitro ADME. The following applies: HLM, diclofenac substrate, 10 μM, 10 min at 37° C. Here is the method: as §1
The nature of data set [2]: Metabolic stability in human liver microsomes. It counts as in vitro ADME. Conditions: over 60 minutes, 0.1 μM, 37° C., LC-MS/MS. On the procedure:
Measurement of the metabolic stability in HLM was accomplished by incubating 17 with the microsomes and monitoring its disappearance with time using LC-MS/MS. Imipramine, propranolol, terfenadine, and verapamil were run in similar condition as controls. […] Metabolic Stability in Human Liver Microsomes. The experiments were performed by Eurofins Panlabs (Redmond, Wash. 98052, USA). The test concentration of 17 was 0.1 μM. […] The detection method was by LC-MS/MS. Imipramine, propranolol, terfenadine, and verapamil were run in similar condition as controls.

Another data set concerns the target CYP2C8 (Homo sapiens (Human), UniProt P10632). The data set can be described thus: Inhibition of microsomal cytochromes P450: CYP2C8. The format is in vitro ADME. Conditions: HLM, paclitaxel substrate, 10 μM, 10 min at 37° C. Here is the method:
as §1

In the next data set the target is CYP2C19 (Homo sapiens (Human), UniProt P33261). The data set can be described thus: Inhibition of microsomal cytochromes P450: CYP2C19. It counts as in vitro ADME. Conditions: HLM, omeprazole substrate, 10 μM, 10 min at 37° C. On the procedure:
as §1

For data set [3], the system named is multiple-hit rat model of infantile spasms. The following applies: cited from earlier work.
For data set [4], the target named is GABA aminotransferase (GABA-AT) (Sus scrofa (Pig), UniProt P80147). The data set can be described thus: Inhibition of GABA-AT, coupled assay with SSDH (IC50 to Ki by Cheng-Prusoff). It counts as biochemical. Conditions: competitive inhibitor of GABA-AT. Here is the method:
GABA-AT was isolated and purified from pig brain by a published procedure.
Inhibition constants were determined by monitoring GABA-AT activity in the presence of 0-50 mM concentrations of synthesized analogues using a coupled assay with the enzyme succinic semialdehyde dehydrogenase (SSDH). The assay solution consisted of 10 mM GABA, 5 mM α ketoglutarate, 1 mM NADP^+, 5 mM β-mercaptoethanol, and excess SSDH in 50 mM potassium pyrophosphate buffer, pH 8.5. Enzyme activity was determined by observing the change in absorbance at 340 nm at 25° C. IC50 values were obtained using non-linear regression in GraphPad Prism5 software. […] (Yung-Chi, C.; Prusoff, W. H. Biochem. Pharmacol. 1973, 22, 3099-3108.)

In general, Ki refers to the equilibrium dissociation constant of an inhibitor or competing ligand from its target. The low end stands for tighter binding, the high end for weaker binding.

Chain of GABA aminotransferase (GABA-AT) (P80147 29-500): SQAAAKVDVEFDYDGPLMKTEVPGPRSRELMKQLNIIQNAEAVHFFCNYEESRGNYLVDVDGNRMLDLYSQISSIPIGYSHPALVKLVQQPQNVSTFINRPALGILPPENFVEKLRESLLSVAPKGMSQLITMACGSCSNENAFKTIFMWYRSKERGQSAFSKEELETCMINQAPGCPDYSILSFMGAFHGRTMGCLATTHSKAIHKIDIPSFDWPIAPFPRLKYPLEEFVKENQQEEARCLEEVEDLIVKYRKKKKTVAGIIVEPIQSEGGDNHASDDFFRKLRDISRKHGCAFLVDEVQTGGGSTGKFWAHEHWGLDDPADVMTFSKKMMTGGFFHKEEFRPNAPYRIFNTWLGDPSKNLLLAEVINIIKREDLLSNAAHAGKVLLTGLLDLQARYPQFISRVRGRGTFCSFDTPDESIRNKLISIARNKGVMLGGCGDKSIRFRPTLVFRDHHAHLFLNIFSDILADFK
Chain of CYP2C9 (P11712 whole entry): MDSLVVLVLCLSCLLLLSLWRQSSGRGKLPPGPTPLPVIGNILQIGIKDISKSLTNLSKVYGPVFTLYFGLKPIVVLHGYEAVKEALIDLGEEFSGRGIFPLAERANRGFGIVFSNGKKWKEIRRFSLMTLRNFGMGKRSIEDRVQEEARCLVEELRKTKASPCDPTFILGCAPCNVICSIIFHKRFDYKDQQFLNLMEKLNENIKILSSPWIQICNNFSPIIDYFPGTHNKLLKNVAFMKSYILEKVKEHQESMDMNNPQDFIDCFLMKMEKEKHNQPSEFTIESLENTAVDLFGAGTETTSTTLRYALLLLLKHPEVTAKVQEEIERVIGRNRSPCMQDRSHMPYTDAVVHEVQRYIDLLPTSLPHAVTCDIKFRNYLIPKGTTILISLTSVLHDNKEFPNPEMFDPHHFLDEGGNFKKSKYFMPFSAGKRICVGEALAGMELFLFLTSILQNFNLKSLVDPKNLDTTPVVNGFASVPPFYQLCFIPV
Chain of CYP2D6 (P10635 whole entry): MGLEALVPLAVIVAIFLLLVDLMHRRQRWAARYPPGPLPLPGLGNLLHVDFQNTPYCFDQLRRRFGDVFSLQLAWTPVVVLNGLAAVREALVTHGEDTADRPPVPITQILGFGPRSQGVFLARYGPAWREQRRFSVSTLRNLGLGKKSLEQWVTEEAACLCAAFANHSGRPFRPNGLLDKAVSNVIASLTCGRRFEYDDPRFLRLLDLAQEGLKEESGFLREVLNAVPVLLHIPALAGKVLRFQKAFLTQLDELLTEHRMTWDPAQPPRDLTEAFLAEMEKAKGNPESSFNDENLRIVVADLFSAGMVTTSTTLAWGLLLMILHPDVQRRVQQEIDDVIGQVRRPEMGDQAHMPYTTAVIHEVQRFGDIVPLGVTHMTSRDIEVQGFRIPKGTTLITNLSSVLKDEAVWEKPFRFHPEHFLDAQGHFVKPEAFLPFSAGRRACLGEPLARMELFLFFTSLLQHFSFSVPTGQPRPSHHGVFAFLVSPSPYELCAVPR
Chain of hERG channel (Q12809 whole entry): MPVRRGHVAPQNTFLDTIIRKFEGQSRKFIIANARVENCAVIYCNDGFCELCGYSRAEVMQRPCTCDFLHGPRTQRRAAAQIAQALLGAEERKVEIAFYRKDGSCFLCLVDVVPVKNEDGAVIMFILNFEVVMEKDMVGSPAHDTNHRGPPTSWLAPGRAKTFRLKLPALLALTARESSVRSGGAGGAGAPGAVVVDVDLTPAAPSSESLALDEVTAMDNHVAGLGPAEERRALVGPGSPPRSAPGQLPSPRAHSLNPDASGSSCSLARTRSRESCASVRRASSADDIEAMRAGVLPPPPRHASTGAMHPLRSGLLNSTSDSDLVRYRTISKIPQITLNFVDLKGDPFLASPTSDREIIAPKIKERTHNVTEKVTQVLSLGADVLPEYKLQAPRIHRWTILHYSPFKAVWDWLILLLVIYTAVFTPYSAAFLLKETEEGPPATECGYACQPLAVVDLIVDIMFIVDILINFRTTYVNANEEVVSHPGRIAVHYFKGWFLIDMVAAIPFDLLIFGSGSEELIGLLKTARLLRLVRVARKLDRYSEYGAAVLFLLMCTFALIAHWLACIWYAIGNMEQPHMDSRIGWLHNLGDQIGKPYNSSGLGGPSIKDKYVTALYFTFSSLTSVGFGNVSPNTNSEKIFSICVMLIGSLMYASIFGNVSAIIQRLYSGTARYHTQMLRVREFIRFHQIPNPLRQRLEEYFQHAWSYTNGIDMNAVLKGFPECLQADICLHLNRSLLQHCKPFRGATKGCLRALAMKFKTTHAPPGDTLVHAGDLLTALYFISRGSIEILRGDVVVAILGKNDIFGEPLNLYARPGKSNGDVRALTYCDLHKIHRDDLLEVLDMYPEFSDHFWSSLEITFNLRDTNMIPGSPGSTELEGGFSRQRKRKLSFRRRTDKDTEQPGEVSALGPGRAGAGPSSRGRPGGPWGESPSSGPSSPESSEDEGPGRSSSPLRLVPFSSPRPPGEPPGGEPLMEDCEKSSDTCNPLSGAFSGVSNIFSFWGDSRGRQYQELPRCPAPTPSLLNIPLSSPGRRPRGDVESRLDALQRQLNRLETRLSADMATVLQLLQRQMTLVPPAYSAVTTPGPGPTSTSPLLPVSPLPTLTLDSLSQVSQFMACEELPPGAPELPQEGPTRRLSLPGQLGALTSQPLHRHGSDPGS
Chain of CYP2B6 (P20813 whole entry): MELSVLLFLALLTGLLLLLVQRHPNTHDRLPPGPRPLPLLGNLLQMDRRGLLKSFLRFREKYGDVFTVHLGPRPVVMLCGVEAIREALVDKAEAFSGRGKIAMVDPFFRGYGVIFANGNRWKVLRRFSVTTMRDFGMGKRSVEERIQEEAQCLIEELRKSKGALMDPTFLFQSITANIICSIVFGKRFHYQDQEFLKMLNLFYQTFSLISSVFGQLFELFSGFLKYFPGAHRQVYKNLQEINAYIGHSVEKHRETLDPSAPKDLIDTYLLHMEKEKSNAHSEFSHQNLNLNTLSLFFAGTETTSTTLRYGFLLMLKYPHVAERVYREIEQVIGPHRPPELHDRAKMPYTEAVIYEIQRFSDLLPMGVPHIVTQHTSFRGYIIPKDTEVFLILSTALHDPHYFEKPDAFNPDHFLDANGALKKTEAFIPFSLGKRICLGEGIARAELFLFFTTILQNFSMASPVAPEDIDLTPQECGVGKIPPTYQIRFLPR
Chain of CYP2C8 (P10632 whole entry): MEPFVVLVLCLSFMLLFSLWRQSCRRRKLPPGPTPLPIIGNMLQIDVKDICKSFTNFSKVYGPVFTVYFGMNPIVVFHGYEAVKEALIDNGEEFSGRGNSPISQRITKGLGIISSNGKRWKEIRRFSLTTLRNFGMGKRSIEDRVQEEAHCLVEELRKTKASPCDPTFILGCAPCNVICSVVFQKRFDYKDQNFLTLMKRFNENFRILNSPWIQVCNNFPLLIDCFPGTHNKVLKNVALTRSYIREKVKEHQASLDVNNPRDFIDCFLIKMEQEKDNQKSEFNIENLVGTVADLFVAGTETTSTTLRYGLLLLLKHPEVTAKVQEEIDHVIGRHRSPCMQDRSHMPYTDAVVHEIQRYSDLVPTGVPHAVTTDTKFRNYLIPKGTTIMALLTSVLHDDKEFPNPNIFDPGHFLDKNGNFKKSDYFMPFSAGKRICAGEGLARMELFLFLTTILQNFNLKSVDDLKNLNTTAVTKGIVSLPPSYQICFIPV
Chain of CYP2C19 (P33261 whole entry): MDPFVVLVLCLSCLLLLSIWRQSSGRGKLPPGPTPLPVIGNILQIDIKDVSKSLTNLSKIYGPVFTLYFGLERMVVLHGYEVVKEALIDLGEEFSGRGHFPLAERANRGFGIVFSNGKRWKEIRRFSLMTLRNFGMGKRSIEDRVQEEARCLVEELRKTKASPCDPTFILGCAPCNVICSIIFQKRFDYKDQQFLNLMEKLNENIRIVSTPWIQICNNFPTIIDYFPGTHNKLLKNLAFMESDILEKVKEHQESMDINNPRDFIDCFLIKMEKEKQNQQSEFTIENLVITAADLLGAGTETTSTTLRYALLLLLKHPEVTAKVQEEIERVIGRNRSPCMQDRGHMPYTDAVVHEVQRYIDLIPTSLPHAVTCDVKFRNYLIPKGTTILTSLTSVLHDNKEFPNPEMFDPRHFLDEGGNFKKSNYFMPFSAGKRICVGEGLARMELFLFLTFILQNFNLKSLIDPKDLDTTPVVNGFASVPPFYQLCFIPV

Turning to `N[C@H]1C=C(C(=O)O)SC1` [(S)-4-Amino-4,5-dihydro-2-thiophenecarboxylic acid], the “inactivation or inhibition of aspartate aminotransferase” value in [1] is recorded as “inactivator of aspartate aminotransferase”. For the same compound, in the data set with GABA-AT, the “inactivation of GABA-AT (in words, prior art)” value was “known inactivator of GABA-AT”.

Regarding `Cl.N[C@@H]1CS[C@H](C(=O)O)C1` [Compound 17, (2S,4S)-4-Aminotetrahydrothiophene-2-carboxylic acid hydrochloride], the “inhibition of the hERG channel (tail current)” value against hERG channel is “did not inhibit”. Moreover, the CYP3A inhibition result in the data set on CYP3A is “did not inhibit or induce”. Also, on CYP2B6, the CYP2B6 inhibition result was “did not inhibit or induce”. In addition, the CYP2D6 inhibition entry at CYP2D6 is given as “did not inhibit or induce”. The CYP1A inhibition entry in the data set with CYP1A is recorded as “did not inhibit or induce”. For the same compound, the CYP2C9 inhibition entry on CYP2C9 is on record as “did not inhibit or induce”. In addition, the “metabolized in HLM” value in [2] was “less than 20%”. Moreover, at CYP2C8, the CYP2C8 inhibition result is given as “did not inhibit or induce”. Besides, the CYP2C19 inhibition entry on CYP2C19 is listed as “did not inhibit or induce”.

`C=CC(N)CCC(=O)O` (stereo not shown) [vigabatrin]: the “time spasms suppression stayed effective” value in [3] is 1 days.

“(2S,4S)-4-aminotetrahydrofuran-2-carboxylic acid (40) and (2R,4R)-4-aminotetrahydrofuran-2-carboxylic acid (51) [mixture of enantiomers 40 and 51]” showed a Ki in data set [4] of 430 µM.

Values taken from patent US10800753B2, “Tetrahydrothiophene-based GABA aminotransferase inactivators and analogs thereof for treating neurological disorders” (Northwestern University, priority 2015, dated 2020).
